EP2662079A1 (Ordway Research Institute, Inc., priority 2012, dated 2013)
Several values for one entry are separate records, joined by “and”; a condition that tells them apart may be missing. Equal entries are not always repeated.

Experiments:
[1] = tested on: Matrigel plugs; experiment: Mouse Matrigel model of angiogenesis (plug hemoglobin); type: in vivo, mice (C57BL/6NCr)
Method: Normal male mice (C57BL/6NCr) 6-8 weeks of age and weighing ~20 g were purchased from Taconic farm. Animals were housed 4 per cage, in controlled conditions of temperature (20-24 °C); humidity (60-70%) and 12 hrs. light/dark cycle provided with food and water ad libitum. […] Matrigel (BD Bioscience, San Jose CA) was thawed overnight at 4 °C and placed on ice. Aliquots of matrigel were placed into cold polypropylene tubes to prevent the matrigel from solidifying and the angiogenesis promoter added to matrigel with or without agonist. Mice were treated daily. Matrigel was subcutaneously injected as triple injection per animal at 100 µL/animal. At day 14 post plug implant all animals were killed in CO2 chamber and matrigel plugs were collected. […]
The matrigel plugs dissected from the mice were carefully stripped of any remaining peritoneum. The plugs were placed into 0.5 mL tube of ddH2O and homogenized for 5-10 min. […] Absorbance was read with a Microplate Manager ELISA reader at 540 nm. […] Hemoglobin concentration is a reflection of the number of blood vessels in the plugs.

[2] = tested on: MCF7/R cells; experiment: Growth of doxorubicin-resistant tumors in nude mice; type: in vivo; settings: Tetrac 30 mg/kg (Figure 17)
[3] = tested on: GL261 cells; experiment: Cell multiplicity after Tetrac exposure; type: cell-based, murine; settings: after one hour exposure to Tetrac
Method: Cell multiplicity (CM) was determined from Giemsa stained slides by counting the number of cells per microcolony under 20 X magnification. At least 400 microcolonies were counted.
The length of time that Tetrac biologically affected GL261 cells was also determined. To do this, the multiplicity relationship defined above was utilized. Tetrac was added to cells one hour prior to the determination of the multiplicity. After the exposure of exponentially growing GL261 cells to Tetrac, the Tetrac containing medium was removed from GL261 cells, which contained an unknown residual and fresh medium (without Tetrac) was added. As a function of time (i.e., 0, 1, 2, 3, 4, 6, 8, and 10 hours, and 1-6 days), the cells, containing an unknown residual amount of remaining Tetrac, were then processed for determination of the multiplicity index (i.e. the number of cells per microcolony).

[4] = tested on: GL261 cells; experiment: Sublethal damage repair (SLDR), split-dose x-rays; type: cell-based, murine
Method: SLDR was measured at 10% immediate survival level as determined from the acute single dose curve for both control and Tetrac-treated cells in both growth states (i.e. exponentially growing and plateau phase cells. Flasks were irradiated with one-half of the total dose and returned to the 37°C incubator. At increasing periods of time, flasks were removed, and given the second half of the immediate 10% survival dose. Survival was measured at 0, 0.5, 1.0, 1.5, 2.0, 3.0, 4.0, 6.0, 8.0, and 10.0 hours after the initial dose.
To investigate the effects of Tetrac on SLDR and PLDR, cells were chosen that had been given a one-hour treatment with Tetrac at two different times, i.e., at 70 and 270 hours post-seeding).

[5] = tested on: U87MG cells; experiment: Colony forming efficiency and flow cytometry; type: cell-based, human; settings: Tetrac for 1 h at 37°C
Method: U87MG cells were seeded at 10^6 cells/100 mm^2 dish and incubated at 37°C for 24 h. Adherent cells were trypsinized and washed once in ambient temperature PBS. Cells were then fixed in 70% ethanol, and stored overnight at 4°C. Cells were prepared for cell cycle analysis by first pelleting the cells (1000 rpm, 7 min, 4°C), and then resuspending the pellet in 1 mL of PBS containing 0.2 mg/mL propidium iodide (Boehringer Mannheim, Indianapolis, IN), with incubation in the dark for 30 min. Cells were then left overnight at 4°C in the dark. Cells were analyzed on a Coulter fluorescence-activated cell sorter (Coulter Electronics, Hialeah, FL). Cells were excited with a single 488 nm argon laser, and the resulting fluorescence was detected using a 585 nm filter. Linear red-orange FL3 data were collected (10,000 events per collection). The distribution of cells within the cell cycle was determined using a Coulter software program.

[6] = tested on: U87MG cells; experiment: Neutral comet assay (DNA double-strand breaks); type: cell-based, human
Method: For the comet assay studies of induction and repair of DSBs in U87MG cells, cells were treated as described above. However, for the single dose induction ofDSBs doses ranged from 0-30 Gy, and for the study of the repair ofDSBs in irradiated cells, a large single dose of 60 Gy requiring approximately 1 h of irradiation time was given. Appropriate temperature controls (on ice) were run to insure that no decrement in survival was produced by the 1 h exposure to 0°C.
U87MG cells on plastic slides were exposed to 2 nM Tetrac for 1 h at 37°C. These slides were then placed on crushed ice and irradiated with doses from 0 to 75 Gy. Slides were immersed in lysing solution at 50°C for 2 hours. Slides were washed, and placed into a gel electrophoresis unit. Electrophoresis was carried out at 0.66 V/cm for 25 min. Cells were stained with ethidium bromide and image analysis was done using an epifluoresence microscope at a total magnification of 400 X. We also used an excitation filter of 515-535 nm and a barrier filter at 590 nm. The mean tail moment (TM) which is expressed in arbitrary units was then calculated. TM was calculated using a CCD camera and software. Approximately 350 comets were analyzed per condition.

[7] = single dose of 30 Gy, Tetrac-treated cells

O=C(O)Cc1cc(I)c(Oc2cc(I)c(O)c(I)c2)c(I)c1 [Tetrac, 3,3',5,5'-tetraiodothyroacetic acid] was tested, and the “Hemoglobin (mg/mL)± SEM” value ([1]; FGF 100 ng + compound 10 µg/plug, n= 7-14) was 0.5 ± 0.1 mg/mL, the “Mean inhibition of angiogenesis (%)” value ([1]; FGF-induced angiogenesis, 10 µg/plug) was 85% and the “Hemoglobin (mg/mL)± SEM” value ([1]; T4 + antagonist, each 10 µg/matrigcl plug) was 0.4 ± 0.1 mg/mL. The “growth of drug resistant tumors in nude mice” value [2] was “effective in suppressing the growth”, the “time for a 50% return of the cell multiplicity factor towards control level” value [3] was “approximately 2.5 days” and the “time post Tetrac treatment at which decrease in the CM factor was recorded at 50%” value [3] was 60 h. For the same compound, the “repair of x-ray damage” value ([4]; Tetrac 2uM, 6 to 8 hours post-irradiation (Figure 58)) was “no repair of x-ray damage”, the recovery ratio ([4]; exponential Tetrac treated cells, 2 hours after the first dose) was 1.8 and the “factor by which Tetrac reduced SLDR” value ([4]; exponential cells) was 1.8. The “survival relative to survival seen at 0 hours” value ([4]; plateau phase cells with Tetrac, 3 hours after the initial dose) was “approximately 36%”, the “decrease in cellular repair (factor)” value ([4]; plateau phase cells, three hours post-irradiation) was about 3 and the G1 ([5]; flow cytometry) was 58.2 (± 12.2) %. The G2/M ([5]; flow cytometry) was 24.8 (± 2.8) %, the S ([5]; flow cytometry) was 15.4 (± 9.1) % and the sub-G1 population ([5]; flow cytometry) was 1.5 (± 0.2) %. For the same compound, the colony forming efficiency ([5]; mean and 95% confidence limits) was 26.0 (± 6.1) %, the “increase of the slow repair part of the curve” value [6] was “approximately 2.2 fold” and the “sensitization factor (steady-state DSB levels)” value ([6]; 0 Gy) was 2.2. For the same compound, the mean tail moment ([6]; 0 radiation dose, 1 h Tetrac at 37°C, arbitrary units) was 12.4 and 13.1, the “slope of DSB repair versus time” value ([6]; after 30 Gy of x-rays (control -4.36)) was -1.20 and the “relative percentage of fast repair” value [6, 7] was 16%. For the same compound, the “relative percentage of slow repair” value [6, 7] was 84% and the “inhibition of the repair of DNA double strand breaks” value ([6]; vs control U87MG cells) was 72.5%.
